Assay results taken from PMC6352943, “Novel pyrazolo[3,4-d]pyrimidines: design, synthesis, anticancer activity, dual EGFR/ErbB2 receptor tyrosine kinases inhibitory activity, effects on cell cycle profile and caspase-3-mediated apoptosis” (Journal of Enzyme Inhibition and Medicinal Chemistry, 2019).

Key:
Assay in all cases: NCI 60 cell line single dose screen (SRB)
Format in all cases: cell-based
NCI-H460 = details: Homo sapiens; NCI-H460 (non-small cell lung cancer), single dose 10^−5 M, 48 h; read-out: Growth inhibition percentage
Experimental: (§1) Anticancer activity screening of the newly synthesised compounds was measured in vitro utilising 60 different human tumour cell lines provided by US National Cancer Institute according to previously reported standard procedure[27–29] as follows: Cells are inoculated into 96-well microtitre plates in 100 ml. After cell inoculation, the microtitre plates are incubated at 37 °C, 5% CO2, 95% air and 100% relative humidity for 24 h prior to addition of experimental compounds. After 24 h, two plates of each cell line are fixed in situ with TCA, to represent a measurement of the cell population for each cell line at the time of drug addition (Tz). Experimental compounds are solubilised in dimethyl sulphoxide at 400-fold the desired final maximum test concentration and stored frozen prior to use. At the time of compound addition, an aliquot of frozen concentrate is thawed and diluted to twice the desired final maximum test concentration with complete medium containing […] gentamicin. Aliquots of […] of the compounds dilutions are added to the appropriate microtitre wells already containing 100 ml of medium, resulting in the required final compound concentration. Following compound addition, the plates are incubated for an additional 48 h at 37 °C, 5% CO2, 95% air, and 100% relative humidity. For adherent cells, the assay is terminated by the addition of cold trichloroacetic acid (TCA). Cells are fixed in situ by the gentle addition of 50 ml of cold 50% (w/v) TCA (final concentration, 10% TCA) and incubated for 60 min at 4 °C. The supernatant is discarded, and the plates are washed five times with tap water and air-dried. Sulphorhodamine B (SRB) solution (100 ml) at 0.4% (w/v) in 1% acetic acid is added to each well, and plates are incubated for 10 min at room temperature. After staining, unbound dye is removed by washing five times with 1% acetic acid and the plates are air-dried. Bound stain is subsequently solubilised with 10 mM trizma base, and the absorbance is read on an automated plate reader at a wavelength of 515 nm. For suspension cells, the methodology is the same except that the assay is terminated by fixing settled cells at the bottom of the wells by gently adding 50 ml of 80% TCA (final concentration, 16% TCA). Using the absorbance measurements [time zero, (Tz), control growth, (C), and test growth in the presence of compound (Ti)], the percentage growth is calculated for each compound. Percentage growth inhibition is calculated as: [(Ti – Tz)/(C – Tz)] x 100 for concentrations for which Ti >/=Tz. [(Ti – Tz)/Tz] x 100 for concentrations for which Ti < Tz.

NCI-H322M = details: Homo sapiens; NCI-H322M (non-small cell lung cancer), single dose 10^−5 M, 48 h; read-out: Growth inhibition percentage
Experimental: as §1

A498 = details: Homo sapiens; A498 (renal cancer), single dose 10^−5 M, 48 h; read-out: Growth inhibition percentage
Experimental: as §1

SNB-75 = details: Homo sapiens; SNB-75 (CNS cancer), single dose 10^−5 M, 48 h; read-out: Growth inhibition percentage
Experimental: as §1

SN12C = details: Homo sapiens; SN12C (renal cancer), single dose 10^−5 M, 48 h; read-out: Growth inhibition percentage
Experimental: as §1

EKVX = details: Homo sapiens; EKVX (non-small cell lung cancer), single dose 10^−5 M, 48 h; read-out: Growth inhibition percentage
Experimental: as §1

UO-31 = details: Homo sapiens; UO-31 (renal cancer), single dose 10^−5 M, 48 h; read-out: Growth inhibition percentage
Experimental: as §1

IGROV1 = details: Homo sapiens, IGROV-1; IGROV1 (ovarian cancer), single dose 10^−5 M, 48 h; read-out: Growth inhibition percentage
Experimental: as §1

SK-OV-3 = details: Homo sapiens; SK-OV-3 (ovarian cancer), single dose 10^−5 M, 48 h; read-out: Growth inhibition percentage
Experimental: as §1

U251 = details: Homo sapiens, U-251; U251 (CNS cancer), single dose 10^−5 M, 48 h; read-out: Growth inhibition percentage
Experimental: as §1

KM12 = details: Homo sapiens; KM12 (colon cancer), single dose 10^−5 M, 48 h; read-out: Growth inhibition percentage
Experimental: as §1

NCI-H226 = details: Homo sapiens; NCI-H226 (non-small cell lung cancer), single dose 10^−5 M, 48 h; read-out: Growth inhibition percentage
Experimental: as §1

OVCAR-3 = details: Homo sapiens; OVCAR-3 (ovarian cancer), single dose 10^−5 M, 48 h; read-out: Growth inhibition percentage
Experimental: as §1

786-0 = details: Homo sapiens; 786-0 (renal cancer), single dose 10^−5 M, 48 h; read-out: Growth inhibition percentage
Experimental: as §1

MDA-MB-435 = details: Homo sapiens; MDA-MB-435 (melanoma), single dose 10^−5 M, 48 h; read-out: Growth inhibition percentage
Experimental: as §1

MDA-MB-468 = details: Homo sapiens; MDA-MB-468 (breast cancer), single dose 10^−5 M, 48 h; read-out: Growth inhibition percentage
Experimental: as §1

SK-MEL-5 = details: Homo sapiens; SK-MEL-5 (melanoma), single dose 10^−5 M, 48 h; read-out: Growth inhibition percentage
Experimental: as §1

NCI/ADR-RES = details: Homo sapiens; NCI/ADR-RES (ovarian cancer), single dose 10^−5 M, 48 h; read-out: Growth inhibition percentage
Experimental: as §1

DU-145 = details: Homo sapiens; DU-145 (prostate cancer), single dose 10^−5 M, 48 h; read-out: Growth inhibition percentage
Experimental: as §1

OVCAR-8 = details: Homo sapiens; OVCAR-8 (ovarian cancer), single dose 10^−5 M, 48 h; read-out: Growth inhibition percentage
Experimental: as §1

SK-MEL-28 = details: Homo sapiens; SK-MEL-28 (melanoma), single dose 10^−5 M, 48 h; read-out: Growth inhibition percentage
Experimental: as §1

SMILES | inhibition at 10 µM (NCI-H460) | inhibition at 10 µM (NCI-H322M) | inhibition at 10 µM (A498) | inhibition at 10 µM (SNB-75) | inhibition at 10 µM (SN12C) | inhibition at 10 µM (EKVX) | inhibition at 10 µM (UO-31) | inhibition at 10 µM (IGROV1) | inhibition at 10 µM (SK-OV-3) | inhibition at 10 µM (U251) | inhibition at 10 µM (KM12) | inhibition at 10 µM (NCI-H226) | inhibition at 10 µM (OVCAR-3) | inhibition at 10 µM (786-0) | inhibition at 10 µM (MDA-MB-435) | inhibition at 10 µM (MDA-MB-468) | inhibition at 10 µM (SK-MEL-5) | inhibition at 10 µM (NCI/ADR-RES) | inhibition at 10 µM (DU-145) | inhibition at 10 µM (OVCAR-8) | other results
COc1ccc(N2CCN(c3ncnc4c3c(C)nn4-c3ccc(F)cc3)CC2)cc1 [Compound 8d, 1–(4-Fluorophenyl)-4–(4-(4-methoxyphenyl)piperazin-1-yl)-3-methyl-1H-pyrazolo[3,4-d]pyrimidine] | -4.87% | 1.5% | -0.85% | 5.93% | 6.31% | 7.21% | 21.3% | 9.45% | 3.69% | -2.5% | 0.4% | 5.22% | -8.47% | -4.57% | -6.1% | 0.37% | -1.01% | -3.7% | -11.2% | 1.33% | inhibition at 10 µM (SK-MEL-28): -8.74%
Cc1nn(-c2ccc(F)cc2)c2ncnc(N3CCN(c4ccc(Cl)cc4)CC3)c12 [Compound 8c, 4–(4-(4-Chlorophenyl)piperazin-1-yl)-1–(4-fluorophenyl)-3-methyl-1H-pyrazolo[3,4-d]pyrimidine] | -4.35% | 3.9% | 9.66% | 0.02% | 13.3% | 20.6% | 34.9% | 25.6% | 12.6% | -0.06% | 2.24% | 7.59% | 1.21% | -2.04% | -14.5% | -3.83% | 5.22% | 6.62% | -5.88% | 3.66% | inhibition at 10 µM (SK-MEL-28): -3.74%
Cc1nn(-c2ccc(F)cc2)c2ncnc(Cl)c12 [Compound 6, 4-Chloro-1–(4-fluorophenyl)-3-methyl-1H-pyrazolo[3,4-d]pyrimidine] | -0.07% | 5.32% | 4.71% | 6.36% | 1.02% | 9.08% | 11.8% | 24.4% | 13.7% | 5.15% | 0.99% | 15.1% | -8.39% | -0.09% | -8.83% | 8.7% | 5.94% | -8.11% | 3.05% | 6.34% | inhibition at 10 µM (SK-MEL-28): -4.92%
Cc1nn(-c2ccc(F)cc2)c2ncnc(Nc3ccc(F)c(Cl)c3)c12 [Compound 7d, N-(3-Chloro-4-fluorophenyl)-1–(4-fluorophenyl)-3-methyl-1H-pyrazolo[3,4-d] pyrimidin-4-amine] | 58.5% | 12% | -5.43% | 25% | 21.5% | 14.5% | 25.5% | 27.6% | 13.9% | 24% | 1.96% | 62.9% | 9.57% | 21.3% | 0.1% | -1.69% | -0.44% | 5.13% | -3.13% | 16.6% | inhibition at 10 µM (SK-MEL-28): -4.63%
Cc1nn(-c2ccc(F)cc2)c2ncnc(NN)c12 [Compound 9, 1–(4-Fluorophenyl)-4-hydrazinyl-3-methyl-1H-pyrazolo[3,4-d]-pyrimidine] | -11.7% | 23.9% | 1.48% | -0.56% | 8.3% | 17% | 28.7% | 23.5% | 7.98% | 9.85% | 3.79% | 15.5% | 32.2% | -3.72% | -9.22% | 18.5% | 3.85% | 3.79% | -0.84% | 1.29% | inhibition at 10 µM (SK-MEL-28): 2.1%
COc1cc(C=NNc2ncnc3c2c(C)nn3-c2ccc(F)cc2)cc(OC)c1OC [Compound 10c, 1–(4-Fluorophenyl)-3-methyl-4–(2-(3,4,5-trimethoxybenzylidene)-hydrazinyl)-1H-pyrazolo[3,4-d]pyrimidine] | -3.23% | 13.5% | 22% | 19.5% | 4.99% | 10% | 31.1% | 26.6% | 7.06% | 0.92% | 5.82% | 5.82% | -0.3% | 1.85% | -2.02% | -4.81% | 15.3% | -2.25% | -4.94% | -1.23% | inhibition at 10 µM (SK-MEL-28): 1.3%
